Experimental findings from patent US12246071B2, “Brain-penetrating ligand and drug carrier” (priority 2018, dated 2025) are described below.

Data set [1] deals with SH-SY5Y cells. Briefly: Uptake into SH-SY5Y cells after permeation of the hCMEC/D3 monolayer. The format is cell-based, human. Particulars: HiLyte-labeled, 1 mM on upper side, 60 minutes. The method, then: hCMEC/D3 cells were seeded in the upper component of a transwell at 2.0×10^5 cells/well, incubated at 37° C. for 5 days, then, the transepithelial electrical resistance (TEER) was measured. SH-SY5Y cells were seeded at 1.0×10^5 cells/well in a 6-well plate, which is a lower component, and incubated at 37° C. for 1 day. […] Over time (upper side 0, 60 minutes; lower side 0, 5, 15, 30, and 60 minutes), the medium was sampled, the fluorescence intensity was measured using I-control (M1000) (TECAN), and the permeation amount was measured. Similar to Example 4, the permeation coefficient Papp (cm/sec) was calculated as follows.

The test system of data set [2] is SH-SY5Y cells. The data set is described as follows: Cholesterol leakage from U18666A-treated cells. Particulars: 1.0, 10.0 and 20.0 mM, 2 hours, 37° C., after U18666A 7.5 μM. The format is cell-based, human. The method, then:
SH-SY5Y cells (1.0×10^5 cells), which are human neuroblasts, were seeded in a 24-well plate, incubated at 37° C. for 24 hours, then, washed with PBS, and a medium supplemented with U18666A (7.5 μM) was added, and it was incubated for an additional 24 hours. Then, washed with PBS, and 150 μL of a medium (HBSS, FBS (−)) containing HP-3-CyD (DS4.4) (1.0, 10.0 and 20.0 mM) or Lac-HP-β-CyD (DSL3.0) (1.0, 10.0 and 20.0 mM) was added. After incubating at 37° C. for 2 hours, the supernatant was collected and centrifuged (10,000). The cholesterol concentration and phospholipid concentration in the obtained supernatant were measured with cholesterol E-Test wako and phospholipid C-Test wako.

For data set [3], the system named is SH-SY5Y cells. Briefly: Intracellular accumulation of amyloid β. The format is cell-based, human. Particulars: 1 mM, 24 hours, after U18666A 7.5 μM and HiLyte488-Aβ 250 nM. The method, then:
Using SH-SY5Y cells, the amyloid β accumulation in the cells was measured. SH-SY5Y cells were seeded at 1.0×10^4 cells/glass dish and incubated at 37° C. for 24 hours. Then, washed with PBS, 150 μL of a medium containing U18666A (7.5 μM) and HiLyte488-Aβ (purchased from AnaSpec) (250 nM) was added and incubated at 37° C. for 24 hours. After washing with PBS, 200 μL of a medium containing HP-β-CyD (DS4.4.1 mM) or Lac-HP-β-CyD (DSL3.0, 1 mM) was added, and the mixture was incubated at 37° C. for 24 hours. After washing with PBS, 200 μL of a medium supplemented with Lysostacker (registered trademark) (final concentration: 100 nM) was added. After incubating for 30 minutes, it was fixed with 4% paraformaldehyde and the FIlipin solution was added.

The test system of the next data set is hCMEC/D3 cells. Briefly: Uptake of HiLyte-labeled Lac-HP-β-CyD into brain capillary endothelial cells (confocal microscope). The format is cell-based, human. As to conditions: 1 mM, 1 hour, 37° C. The method, then: Lac-HP-β-CyD (DSL3.0) and the control HP-β-CyD […] were labeled with HiLyte fluorescent dye according to the manufacturer's manual. The following experiments were carried out using these.
Using hCMEC/D3 cells, which are human brain capillary endothelial cells, the uptake of Lac-HP-β-CyD into cells was confirmed. hCMEC/D3 cells were seeded at 1.0×10^4 cells/glass dish and incubated at 37° C. for 24 hours. Then, it was washed with PBS, and 150 μL of a medium containing HiLyte-HP-β-CyD (DS4.4, 1 mM) or HiLyte-Lac-HP-β-CyD (DSL3.0, 1 mM) was added, and incubated at 37° C. for 1 hour. After washing with PBS, it was fixed with 4% paraformaldehyde.

A short description of data set [4]: Organ distribution of fluorescently labeled Lac-HP-β-CyD after intravenous injection (IVIS). The format is in vivo, BALB/c mouse. As to conditions: HiLyte-labeled, 10 mg/kg intravenous, BALB/c mice, 10 minutes. The method, then:
BALB/c mice (8 weeks old, male, 20 g) were intravenously injected with HiLyte-HP-β-CyD (DS4.4) or HiLyte-Lac-HP-β-CyD (DSL3.0) at a dose of 10 mg/kg. After 10 minutes, the mice were euthanized, perfused with PBS and each organ was collected. Each organ was observed by IVIS.

As for “lactose-modified hydroxypropyl-β-cyclodextrin [Lac-HP-β-CyD]”, the “uptake into SH-SY5Y cells after BBB permeation” value in the data set on SH-SY5Y cells [1] is on record as “significantly taken up into SH-SY5Y cells after BBB permeation as compared with HP-β-CyD”. The “cholesterol leakage into supernatant” value with SH-SY5Y cells [2] was “less cholesterol leakage than HP-β-CyD”. Besides, the “Aβ clearance / intracellular amyloid β accumulation” value with SH-SY5Y cells [3] was “normalized the Aβ clearance by reducing the amount of cholesterol in cells”. Also, the uptake into cells result in the data set on hCMEC/D3 cells was “significantly taken up into the cells as compared with HP-β-CyD”. For the same substance, in data set [4], the “penetration to the brain (fluorescence intensity of organ)” value was “significantly penetrated to the brain as compared with HP-β-CyD”.
